Here are results for seven cell lines from the supplement of paper PMC10307832.

Common to all, as to assay: relative viability (nuclei count vs DMSO), 5 days (fraction); higher = more cells survive
Compound in the test “Neratinib + Foretinib”: CCOc1cc2ncc(C#N)c(Nc3ccc(OCc4ccccn4)c(Cl)c3)c2cc1NC(=O)/C=C/CN(C)C [Neratinib] + COc1cc2c(Oc3ccc(NC(=O)C4(C(=O)Nc5ccc(F)cc5)CC4)cc3F)ccnc2cc1OCCCN1CCOCC1 [Foretinib] (partner 0.25 µM)
The procedure, abridged:
(§1)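 After 5 days of treatment, lung cancer cells in 1536-well plates were fixed and stained in a single step (final 0.05% Triton X-100, 1% formaldehyde, 1 ug/ml Hoechst) and their nuclei counted on 4× images. Treatment had been applied by pin tool the day after seeding as one drug alone or as a fixed anchor-drug dose with five library-drug doses (not always all listed) in √10 steps. Relative viability is the nuclei count of treated wells divided by that of vehicle wells, and values are medians of duplicate plates.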

Compound in the test “Neratinib + Olaparib”: CCOc1cc2ncc(C#N)c(Nc3ccc(OCc4ccccn4)c(Cl)c3)c2cc1NC(=O)/C=C/CN(C)C [Neratinib] + O=C(c1cc(Cc2n[nH]c(=O)c3ccccc23)ccc1F)N1CCN(C(=O)C2CC2)CC1 [Olaparib] (partner 8 µM)
The procedure, abridged: as §1

Compound in the test “Neratinib + Alpelisib”: CCOc1cc2ncc(C#N)c(Nc3ccc(OCc4ccccn4)c(Cl)c3)c2cc1NC(=O)/C=C/CN(C)C [Neratinib] + Cc1nc(NC(=O)N2CCC[C@H]2C(N)=O)sc1-c1ccnc(C(C)(C)C(F)(F)F)c1 [Alpelisib] (partner 2 µM)
The procedure, abridged: as §1

Compound in the test “Neratinib + Pemetrexed”: CCOc1cc2ncc(C#N)c(Nc3ccc(OCc4ccccn4)c(Cl)c3)c2cc1NC(=O)/C=C/CN(C)C [Neratinib] + Nc1nc2[nH]cc(CCc3ccc(C(=O)N[C@@H](CCC(=O)O)C(=O)O)cc3)c2c(=O)[nH]1 [Pemetrexed] (partner 0.2 µM)
The procedure, abridged:
as §1

Regarding RERF-LC-KJ, the relative viability turned out to be 0.924 with Neratinib + Foretinib (first compound 0.01 µM); 0.992 with Neratinib + Foretinib (first compound 0.03162 µM); 0.896 with Neratinib + Foretinib (first compound 0.1 µM); 0.872 with Neratinib + Foretinib (first compound 0.3162 µM); 0.43 in the test with Neratinib + Foretinib (first compound 1 µM); 0.925 in the test with Neratinib + Olaparib (first compound 0.01 µM). Also, the relative viability in the test with Neratinib + Olaparib (first compound 0.03162 µM) was found to be 0.911; with Neratinib + Olaparib (first compound 0.1 µM), 0.828; with Neratinib + Olaparib (first compound 0.3162 µM), 0.848; in the test with Neratinib + Olaparib (first compound 1 µM), 0.468; in the test with Neratinib + Alpelisib (first compound 0.01 µM) it was 0.842; with Neratinib + Alpelisib (first compound 0.03162 µM), 0.841. For the same cell line, the relative viability with Neratinib + Alpelisib (first compound 0.1 µM) stood at 0.709; in the test with Neratinib + Alpelisib (first compound 0.3162 µM) it was 0.577; with Neratinib + Alpelisib (first compound 1 µM), 0.394; with Neratinib + Pemetrexed (first compound 0.01 µM), 0.484; with Neratinib + Pemetrexed (first compound 0.03162 µM) it was 0.483; with Neratinib + Pemetrexed (first compound 0.1 µM), 0.505. For the same cell line, the values for the relative viability with Neratinib + Pemetrexed (first compound 0.3162 µM) and in the test with Neratinib + Pemetrexed (first compound 1 µM) were 0.477 and 0.405, respectively.
Take NCI-H1437: the relative viability in the test with Neratinib + Foretinib (first compound 0.01 µM) was 1.32; with Neratinib + Foretinib (first compound 0.03162 µM), 1.26; with Neratinib + Foretinib (first compound 0.1 µM), 1.18; with Neratinib + Foretinib (first compound 0.3162 µM) it was 1.19; with Neratinib + Foretinib (first compound 1 µM), 1.28; with Neratinib + Olaparib (first compound 0.01 µM), 0.673. Moreover, the relative viability in the test with Neratinib + Olaparib (first compound 0.03162 µM) was 0.614; with Neratinib + Olaparib (first compound 0.1 µM), 0.612; with Neratinib + Olaparib (first compound 0.3162 µM), 0.603; with Neratinib + Olaparib (first compound 1 µM) it was 0.663; with Neratinib + Alpelisib (first compound 0.01 µM), 1.11; with Neratinib + Alpelisib (first compound 0.03162 µM), 1.07. The relative viability with Neratinib + Alpelisib (first compound 0.1 µM) was determined as 0.714; with Neratinib + Alpelisib (first compound 0.3162 µM), 0.912; with Neratinib + Alpelisib (first compound 1 µM), 0.617; with Neratinib + Pemetrexed (first compound 0.01 µM), 0.329; with Neratinib + Pemetrexed (first compound 0.03162 µM) it was 0.344; in the test with Neratinib + Pemetrexed (first compound 0.1 µM), 0.269. The relative viability with Neratinib + Pemetrexed (first compound 0.3162 µM) amounted to 0.275; with Neratinib + Pemetrexed (first compound 1 µM), 0.312.
As to NCI-H2170, the relative viability with Neratinib + Foretinib (first compound 0.01 µM) turned out to be 1.04; in the test with Neratinib + Foretinib (first compound 0.03162 µM), 1.07; with Neratinib + Foretinib (first compound 0.1 µM) it was 0.909; with Neratinib + Foretinib (first compound 0.3162 µM), 0.303; with Neratinib + Foretinib (first compound 1 µM), 0.27; with Neratinib + Olaparib (first compound 0.01 µM), 0.627. Besides, the relative viability with Neratinib + Olaparib (first compound 0.03162 µM) came to 0.49; with Neratinib + Olaparib (first compound 0.1 µM), 0.32; in the test with Neratinib + Olaparib (first compound 0.3162 µM) it was 0.151; in the test with Neratinib + Olaparib (first compound 1 µM), 0.158; with Neratinib + Alpelisib (first compound 0.01 µM) it was 0.619; with Neratinib + Alpelisib (first compound 0.03162 µM), 0.383. For the same cell line, the relative viability stood at 0.314 in the test with Neratinib + Alpelisib (first compound 0.1 µM); 0.21 in the test with Neratinib + Alpelisib (first compound 0.3162 µM); 0.265 with Neratinib + Alpelisib (first compound 1 µM); 0.275 with Neratinib + Pemetrexed (first compound 0.01 µM); 0.261 with Neratinib + Pemetrexed (first compound 0.03162 µM); 0.237 in the test with Neratinib + Pemetrexed (first compound 0.1 µM). Also, the relative viability is 0.203 in the test with Neratinib + Pemetrexed (first compound 0.3162 µM) and 0.196 with Neratinib + Pemetrexed (first compound 1 µM).
Consider LCLC-103H, for which the relative viability with Neratinib + Foretinib (first compound 0.01 µM) was 0.926; in the test with Neratinib + Foretinib (first compound 0.03162 µM) it was 0.805; with Neratinib + Foretinib (first compound 0.1 µM) it was 0.704; with Neratinib + Foretinib (first compound 0.3162 µM), 0.697; with Neratinib + Foretinib (first compound 1 µM), 0.496; with Neratinib + Olaparib (first compound 0.01 µM), 0.63. Moreover, the relative viability with Neratinib + Olaparib (first compound 0.03162 µM) was determined as 0.85; in the test with Neratinib + Olaparib (first compound 0.1 µM) it was 0.705; in the test with Neratinib + Olaparib (first compound 0.3162 µM), 0.726; with Neratinib + Olaparib (first compound 1 µM), 0.642; in the test with Neratinib + Alpelisib (first compound 0.01 µM), 1; with Neratinib + Alpelisib (first compound 0.03162 µM), 1. For the same cell line, the relative viability in the test with Neratinib + Alpelisib (first compound 0.1 µM) was 0.711; with Neratinib + Alpelisib (first compound 0.3162 µM), 0.966; with Neratinib + Alpelisib (first compound 1 µM), 0.629; with Neratinib + Pemetrexed (first compound 0.01 µM), 0.509; with Neratinib + Pemetrexed (first compound 0.03162 µM) it was 0.489; in the test with Neratinib + Pemetrexed (first compound 0.1 µM) it was 0.445. The relative viability with Neratinib + Pemetrexed (first compound 0.3162 µM) amounted to 0.488; in the test with Neratinib + Pemetrexed (first compound 1 µM) it was 0.484.
For the cell line NCI-H460, the relative viability is 1.12 with Neratinib + Foretinib (first compound 0.01 µM); 1.15 with Neratinib + Foretinib (first compound 0.03162 µM); 0.862 with Neratinib + Foretinib (first compound 0.1 µM); 1.04 with Neratinib + Foretinib (first compound 0.3162 µM); 0.87 with Neratinib + Foretinib (first compound 1 µM); 0.428 with Neratinib + Olaparib (first compound 0.01 µM). Moreover, the relative viability in the test with Neratinib + Olaparib (first compound 0.03162 µM) is 0.43; with Neratinib + Olaparib (first compound 0.1 µM), 0.383; in the test with Neratinib + Olaparib (first compound 0.3162 µM) it was 0.415; with Neratinib + Olaparib (first compound 1 µM), 0.419; in the test with Neratinib + Alpelisib (first compound 0.01 µM), 0.598; with Neratinib + Alpelisib (first compound 0.03162 µM) it was 0.6. Besides, the relative viability with Neratinib + Alpelisib (first compound 0.3162 µM) came to 0.403; in the test with Neratinib + Alpelisib (first compound 1 µM), 0.0801; with Neratinib + Pemetrexed (first compound 0.01 µM) it was 0.062; in the test with Neratinib + Pemetrexed (first compound 0.03162 µM) it was 0.0586; with Neratinib + Pemetrexed (first compound 0.1 µM) it was 0.063; in the test with Neratinib + Pemetrexed (first compound 0.3162 µM), 0.0641. In addition, the relative viability with Neratinib + Pemetrexed (first compound 1 µM) was 0.0813.
Take NCI-H1993: the relative viability with Neratinib + Foretinib (first compound 0.01 µM) came to 0.82; with Neratinib + Foretinib (first compound 0.03162 µM), 0.662; with Neratinib + Foretinib (first compound 0.1 µM), 0.6; with Neratinib + Foretinib (first compound 0.3162 µM), 0.567; with Neratinib + Foretinib (first compound 1 µM), 0.657; with Neratinib + Olaparib (first compound 0.01 µM) it was 1.33. The relative viability with Neratinib + Olaparib (first compound 0.03162 µM) is 1.06; with Neratinib + Olaparib (first compound 0.1 µM) it was 0.996; in the test with Neratinib + Olaparib (first compound 0.3162 µM), 0.704; in the test with Neratinib + Alpelisib (first compound 0.01 µM), 0.624; with Neratinib + Alpelisib (first compound 0.03162 µM), 0.666; in the test with Neratinib + Alpelisib (first compound 0.1 µM), 0.717. Further, the relative viability worked out at 0.687 in the test with Neratinib + Alpelisib (first compound 0.3162 µM); 0.664 in the test with Neratinib + Alpelisib (first compound 1 µM); 0.398 in the test with Neratinib + Pemetrexed (first compound 0.01 µM); 0.543 in the test with Neratinib + Pemetrexed (first compound 0.03162 µM); 0.533 with Neratinib + Pemetrexed (first compound 0.1 µM); 0.564 with Neratinib + Pemetrexed (first compound 0.3162 µM). For the same cell line, the relative viability in the test with Neratinib + Pemetrexed (first compound 1 µM) worked out at 0.486.
In the case of BEN, the relative viability with Neratinib + Foretinib (first compound 0.01 µM) worked out at 0.66; with Neratinib + Foretinib (first compound 0.03162 µM), 0.631; in the test with Neratinib + Foretinib (first compound 0.1 µM), 0.822; in the test with Neratinib + Foretinib (first compound 0.3162 µM) it was 0.657; with Neratinib + Foretinib (first compound 1 µM) it was 0.498; with Neratinib + Olaparib (first compound 0.01 µM), 1.15. Also, the relative viability amounted to 1.21 in the test with Neratinib + Olaparib (first compound 0.03162 µM); 0.863 with Neratinib + Olaparib (first compound 0.1 µM); 0.932 with Neratinib + Olaparib (first compound 0.3162 µM); 0.816 with Neratinib + Olaparib (first compound 1 µM); 1.06 in the test with Neratinib + Alpelisib (first compound 0.01 µM); 1.28 in the test with Neratinib + Alpelisib (first compound 0.03162 µM). Further, the relative viability in the test with Neratinib + Alpelisib (first compound 0.1 µM) is 0.983; with Neratinib + Alpelisib (first compound 0.3162 µM) it was 1.04; with Neratinib + Alpelisib (first compound 1 µM) it was 0.598; with Neratinib + Pemetrexed (first compound 0.01 µM) it was 0.971; with Neratinib + Pemetrexed (first compound 0.03162 µM) it was 0.929; with Neratinib + Pemetrexed (first compound 0.1 µM) it was 0.751. The values for the relative viability with Neratinib + Pemetrexed (first compound 0.3162 µM) and in the test with Neratinib + Pemetrexed (first compound 1 µM) were 0.778 and 0.623, respectively.
